Data published in patent US20130079299A1, “Arthritis Therapeutic Agent” (GLUCAN CORPORATION, priority 2010, published 2013).

Key:
[1] = test system: Sprague-Dawley rats caused to have osteoarthritis; test: Osteoarthritis caused by anterior cruciate ligament transection and partial medial meniscectomy, 84 days administration
Description: Sprague-Dawley rats (male, 6 week-old, SLC., JAPAN) [ANNEX I-III] were prepared as laboratory animals.
Six experimental groups were formed, with 8 Sprague-Dawley Rats in each group. […] In addition, a negative control group was an OA control group which was treated with nothing after causing osteoarthritis, and a positive control group was administered 2 mg/kg of diclofenac sodium after causing osteoarthritis.
The medium for the administration was sterilized distilled water at 5 ml/kg.
For the positive control, 2 mg/kg of the diclofenac sodium was transdermally administered at 1 ml/kg of normal saline as a medium every day for 84 days.
Each experimental rat was anesthetized with Zoletile 50 (Vir bac Lab., France), and the left articular capsule was exposed and underwent anterior cruciate ligament transaction and partial medial meniscectomy to cause osteoarthritis. For the sham surgery group, the articular capsule was excised to observe the medial meniscus inside the organ and closed without surgical removal.
Weight change and knee joint thickness change were monitored and measured once a week for 84 days from administration, and on the final day, the maximum stretching angle of the knee joint and the knee joint thickness after exposing the capsule were measured under Safranin O dye, respectively. The Makin scores of the femur and tibia and the cartilage thickness were then histomorphometrically measured, and the articular cartilages of the femur and tibia were each evaluated for BrdU immunoreactivity.

[2] = test system: rheumatoid arthritis (RA) DBA mouse caused by collagen; test: Collagen-induced rheumatoid arthritis (RA) mouse model, histomorphometry of thymus, spleen and knee joint; assay type: in vivo
Description: Bone tissue was amputated from around the thymus and spleen and fixed in 10% neutral formalin, and was then dehydrated and paraffin embedded to provide a 3-4 μm longitudinal section, then dyed with Hematoxylineosin and observed under an optical microscope. In addition, the knee joint of both the rear legs were removed from the around connective tissue and fixed in 10% neutral formalin, and then it was decalcificated using a decalcification solution containing 24.4% of formic acid and 0.5 N of sodium hydroxide for 5 days. […] Then the section was dyed with Hematoxylineosin and observed under the optical microscope. […] DMI, Korea) in the view of a 40×-magnification microscope, and the thickness of articular cartilage of the femur and tibia of the knee joint, the proteoglycan loss, and erosion were evaluated by an automated image analyzer (DMI-300 Image Processing; DMI, Korea) in the view of a 100×-magnification microscope according to the known method [Dudler et al., 2000; van Holten et al., 20 04; Kim et al., 2007]. The proteoglycan loss was evaluated into 3 levels for stainability of Safranin O dye specialized for proteoglycans according to the known method [Williams et al., 1992; Dudler et al., 2000; van Holten et al., 2004]. In other words, 0 indicates no proteoglycan loss, and 3 indicates no stainability because of complete deflection. […] The RA(Rhematoid Arthritis)-induced mouse model using collagen is one of the animal models that are widely used for evaluating the efficacy on RA for various materials [Liu et al., 2008; Miyake et al., 2008; Pa nayi et al., 2008], and RA was caused by the auto-immunity.

[3] = diclofenac sodium 2 mg/kg transdermal daily 84 days
[4] = Diclofenac sodium treated group (dose not given)
[5] = Diclofenac sodium treated group (dose not given), average ± SD of 8 animals
[6] = Diclofenac sodium treated group (dose not given), ± SD of 16 joints
[7] = diclofenac sodium group (dose not given)

## O=C(O)Cc1ccccc1Nc1c(Cl)cccc1Cl [Diclofenac sodium, diclofenac sodium]
[1]; [3]
  BrdU immunoreactive cell number in the femur articular cartilage, change compared to the OA control group: 9.52%
  BrdU immunoreactive cell number in the tibia articular cartilage, change compared to the OA control group: 1.56%
  Mankin score of the femur, change compared to the OA control group: −27.85%
  Mankin score of the tibia, change compared to the OA control group: −20.59%
  maximum stretching angle of knee joint, change compared to the OA control group: −18.18%
  thickness of the knee joint after exposing the joint capsule, change compared to the OA control group: −0.99%
  thickness of the knee joint in the final autopsy, change compared to the OA control group: −5.79%
[1]; diclofenac sodium 2 mg/kg transdermal daily 84 days, b105
  articular cartilage thickness of the femur, change compared to the OA control group: 35.11%
[1]; each of the three-dose Polycan and diclofenac sodium groups, from 21 days after administration, p<0.01 or p<0.05
  thickness of the knee joint compared to osteoarthritis-caused control group over time: significantly decreased
[2]; [4]
  Cortex thickness (thymus): 1.333 ± 0.705 mm/lobules
  Total thickness (thymus): 1.941 ± 0.916 mm/lobules
[2]; [5]
  Entire thickness (spleen): 4.464 ± 0.58 mm/central part
  Number of white medulla (spleen): 10.500 ± 2.121 /1 mm^2
  Thickness of white medulla (spleen): 0.986 ± 0.304 mm/white medulla
[2]; [6]
  Erosion level (Max = 3), femur articular cartilage: 1.000 ± 0.000
  Erosion level (Max = 4), tibia articular cartilage: 0.500 ± 1.000
  Safranin level (Max = 3), femur articular cartilage: 0.500 ± 0.577
  Safranin level (Max = 3), tibia articular cartilage: 1.500 ± 0.577
  Thickness (mm) of tibia articular cartilage: 0.169 ± 0.024 mm
  Thickness of the femur articular cartilage: 0.470 ± 0.674 mm
[2]; all Polycan groups except 21.25 mg/kg in the tibia, diclofenac sodium group
  collagen-induced RA opinion (proteoglycan loss, erosion, cartilage thickness of knee joint): remarkably suppressed
[2]; [7]
  Safranin O score of femur articular cartilage, change compared to the RA control group: −63.64%
  Safranin O score of the tibia articular cartilage, change compared to the RA control group: −29.41%
  diameter of the spleen white medulla, change compared to the RA control group: −8.14%
  entire spleen thickness, change compared to the RA control group: 17.49%
  entire thymus thickness, change compared to the RA control group: −2.80%
  erosion score of the femur articular cartilage, change compared to the RA control group: −36.00%
  erosion score of the tibia articular cartilage, change compared to the RA control group: −75.00%
  number of spleen white medulla, change compared to the RA control group: 5.00%
  thickness of the femur joint cartilage, change compared to the RA control group: 333.70%
  thickness of the thymus cortex, change compared to the RA control group: 18.83%
  thickness of the tibia articular cartilage, change compared to the RA control group: 38.75%
